For 23 compounds, EC50 results are on record in patent publication US7741350B1 (Cara Therapeutics, Inc., priority 2009, dated 2010).

Structures are written as SMILES. Like-named read-outs stand apart in the source and are kept apart here. A value given as a limit tells only on which side of the number the result lay.

Test [1] has as its target human CB1 receptor (hCB1) (Homo sapiens, UniProt P21554). As to the kind of experiment: cAMP assay at human CB1 receptor. It is filed as cell-based. As to conditions: hCB1R; maximum measurable range 30 μM; read-out: EC50 (Potency at Human CB1 determined by cAMP Assay). As to the method: The ability of each of the compounds to act as agonists or inverse agonists at human CB2 and CB1 receptors (hCB2, hCB1, respectively) and at the rat CB2 receptor (rCB2) was determined by measuring changes in intracellular cyclic AMP (cAMP) levels as described in U.S. Pat. No. 7,517,874.
TR-FRET was measured using a 330-380 nm excitation filter, 615 nm and 665 nm emission filters, dichroic minor 380 nm and Z=10 mm. cAMP concentrations in each well were back-calculated from a cAMP standard curve run concurrently during each assay. Each plate contained 16 wells of forskolin stimulated cells and 16 wells of forskolin plus 1 μM CP55,940-treated cells. Concentrations of cAMP were expressed as a percent of the difference of these two groups of wells. Concentration-response data including EC50 (the concentration of compound producing 50% of the maximal response) and intrinsic activity (the percent maximal activation compared to full activation by CP55, 940) were determined using a four-parameter non-linear regression algorithm (CambridgeSoft Bioassay).

The target in test [2] is human CB2 receptor (hCB2) (Homo sapiens, UniProt P34972). As to the kind of experiment: cAMP assay at human CB2 receptor. As to conditions: hCB2R, maximum measurable range 30 μM. It is filed as cell-based. As to the method: TR-FRET was measured using a 330-380 nm excitation filter, 615 nm and 665 nm emission filters, dichroic minor 380 nm and Z=10 mm. cAMP concentrations in each well were back-calculated from a cAMP standard curve run concurrently during each assay. Each plate contained 16 wells of forskolin stimulated cells and 16 wells of forskolin plus 1 μM CP55,940-treated cells. Concentrations of cAMP were expressed as a percent of the difference of these two groups of wells.
(Changes in cAMP serve as a functional read-out for many G protein-coupled receptors.)

Where [3] appears, read: read-out: EC50 (Potency at Human CB2 determined by cAMP Assay).
Setting [4] is: EC50 (Potency at Human CB2 determined by cAMP Assay).

Chain of human CB2 receptor (hCB2) (P34972 whole entry): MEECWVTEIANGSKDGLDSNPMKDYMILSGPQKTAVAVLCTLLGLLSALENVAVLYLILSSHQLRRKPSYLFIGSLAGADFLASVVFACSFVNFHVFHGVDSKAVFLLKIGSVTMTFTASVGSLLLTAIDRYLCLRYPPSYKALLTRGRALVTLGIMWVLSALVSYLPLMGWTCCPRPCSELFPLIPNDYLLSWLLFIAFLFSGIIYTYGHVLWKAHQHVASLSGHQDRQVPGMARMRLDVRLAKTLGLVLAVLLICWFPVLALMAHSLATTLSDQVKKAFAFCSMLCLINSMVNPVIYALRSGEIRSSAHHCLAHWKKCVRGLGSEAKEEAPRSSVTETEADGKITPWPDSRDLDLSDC
Chain of human CB1 receptor (hCB1) (P21554 whole entry): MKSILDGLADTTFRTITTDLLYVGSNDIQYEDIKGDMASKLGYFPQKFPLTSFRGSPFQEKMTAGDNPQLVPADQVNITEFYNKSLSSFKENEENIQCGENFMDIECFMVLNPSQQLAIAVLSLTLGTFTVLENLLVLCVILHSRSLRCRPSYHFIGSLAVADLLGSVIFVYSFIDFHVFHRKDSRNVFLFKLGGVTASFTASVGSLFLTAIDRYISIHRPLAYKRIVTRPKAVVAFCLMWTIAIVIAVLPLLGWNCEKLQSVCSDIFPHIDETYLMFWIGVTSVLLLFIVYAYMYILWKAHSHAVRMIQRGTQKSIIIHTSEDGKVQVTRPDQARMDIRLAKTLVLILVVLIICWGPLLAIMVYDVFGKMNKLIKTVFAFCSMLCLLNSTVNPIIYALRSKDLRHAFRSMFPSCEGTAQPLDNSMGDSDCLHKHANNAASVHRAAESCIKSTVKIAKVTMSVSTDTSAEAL

As for `CN1CCc2c(c(-c3cc(F)c(F)cc3F)nn2C(=O)N[C@H](C(N)=O)C(C)(C)C)C1` [Compound 41, (S)—N-(1-amino-3,3-dimethyl-1-oxobutan-2-yl)-5-methyl-3-(2,4,5-trifluorophenyl)-4,5,6,7-tetrahydro-1H-pyrazolo[4,3-c]pyridine-1-carboxamide], the EC50 (in general, the midpoint of the concentration-response curve) was less than 1000 nM in test [1] and greater than 1000 nM in test [2] (setting [3]).

As to `CNC(=O)[C@@H](NC(=O)n1nc(-c2ccc(F)c(F)c2)c2c1CCN(C)C2)C(C)(C)C` [Compound 42, (S)-3-(3,4-difluorophenyl)-N-(3,3-dimethyl-1-(methylamino)-1-oxobutan-2-yl)-5-methyl-4,5,6,7-tetrahydro-1H-pyrazolo[4,3-c]pyridine-1-carboxamide], the EC50 in test [1] and in test [2] (setting [4]) was less than 1000 nM in each case.

On to `CNC(=O)[C@@H](NC(=O)n1nc(-c2ccc(C(F)(F)F)cc2F)c2c1CCN(C)C2)C(C)(C)C` [Compound 43, (S)—N-(3,3-dimethyl-1-(methylamino)-1-oxobutan-2-yl)-3-(2-fluoro-4-(trifluoromethyl)phenyl)-5-methyl-4,5,6,7-tetrahydro-1H-pyrazolo[4,3-c]pyridine-1-carboxamide], for which the EC50 was less than 1000 nM in test [1] and greater than 1000 nM in test [2] (setting [3]).

As for `CNC(=O)[C@@H](NC(=O)n1nc(C(C)(C)C)c2c1CCN(C)C2)C(C)(C)C` [Compound 44, (S)-3-tert-butyl-N-(3,3-dimethyl-1-(methylamino)-1-oxo-butan-2-yl)-5-methyl-4,5,6,7-tetrahydro-1H-pyrazolo[4,3-c]pyridine-1-carboxamide], the concentration giving a half-maximal response (EC50) is greater than 1000 nM in test [1] and less than 1000 nM in test [2] (setting [4]).

For `CN1CCc2c(c(-c3ccc(F)c(F)c3)nn2C(=O)N2CCC(O)CC2)C1` [Compound 45, (3-(3,4-difluorophenyl)-5-methyl-4,5,6,7-tetrahydro-1H-pyrazolo[4,3-c]pyridin-1-yl)(4-hydroxypiperidin-1-yl)methanone], the EC50 in test [1] and in test [2] (setting [3]) was greater than 1000 nM in each case.

For the compound `CN1CCc2c(c(-c3ccc(F)c(F)c3)nn2C(=O)NC(C)(C)C)C1` [Compound 46, N-tert-butyl-3-(3,4-difluorophenyl)-5-methyl-4,5,6,7-tetrahydro-1H-pyrazolo[4,3-c]pyridine-1-carboxamide], the EC50 is less than 1000 nM in test [1] and greater than 1000 nM in test [2] (setting [3]).

With `CN1CCc2c(c(-c3ccc(F)c(F)c3)nn2C(=O)N[C@H](C(=O)N2CC[C@H](O)C2)C(C)(C)C)C1` [Compound 47, 3-(3,4-difluorophenyl)-N—((S)-1-((S)-3-hydroxypyrrolidin-1-yl)-3,3-dimethyl-1-oxobutan-2-yl)-5-methyl-4,5,6,7-tetrahydro-1H-pyrazolo[4,3-c]pyridine-1-carboxamide], the EC50 was less than 1000 nM in test [1] and greater than 1000 nM in test [2] (setting [3]).

On to `CN1CCc2c(c(-c3ccc(F)c(F)c3)nn2C(=O)N[C@H](CO)C(C)(C)C)C1` [Compound 48, (S)-3-(3,4-difluorophenyl)-N-(1-hydroxy-3,3-dimethylbutan-2-yl)-5-methyl-4,5,6,7-tetrahydro-1H-pyrazolo[4,3-c]pyridine-1-carboxamide], for which the results for the EC50 in test [1] and in test [2] (setting [4]) were greater than 1000 nM and less than 1000 nM, respectively.

As to `CC(C)C[C@H](NC(=O)n1nc(-c2ccc(F)c(F)c2)c2c1CCN(C)C2)C(N)=O` [Compound 49, (S)—N-(1-amino-4-methyl-1-oxopentan-2-yl)-3-(3,4-difluorophenyl)-5-methyl-4,5,6,7-tetrahydro-1H-pyrazolo[4,3-c]pyridine-1-carboxamide], the EC50 in test [1] and in test [2] (setting [4]) was less than 1000 nM throughout.

Take `CC[C@H](C)[C@H](NC(=O)n1nc(-c2ccc(F)c(F)c2)c2c1CCN(C)C2)C(N)=O` [Compound 50, N-((2S,3S)-1-amino-3-methyl-1-oxopentan-2-yl)-3-(3,4-difluorophenyl)-5-methyl-4,5,6,7-tetrahydro-1H-pyrazolo[4,3-c]pyridine-1-carboxamide]: the EC50 in test [1] and in test [2] (setting [4]) was less than 1000 nM each time.

Regarding `CC(C)(C)[C@@H](CO)NC(=O)n1nc(-c2ccc(F)c(F)c2)c2c1CCCC2` [Compound 51, (S)-3-(3,4-difluorophenyl)-N-(1-hydroxy-3,3-dimethylbutan-2-yl)-4,5,6,7-tetrahydro-1H-indazole-1-carboxamide], the EC50 in test [1] and in test [2] (setting [4]) was less than 1000 nM in each case.

On to `CNC(=O)[C@@H](NC(=O)n1nc(-c2ccc(F)c(F)c2)c2c1CCNC2)C(C)(C)C` [Compound 52, (S)-3-(3,4-difluorophenyl)-N-(3,3-dimethyl-1-(methylamino)-1-oxobutan-2-yl)-4,5,6,7-tetrahydro-1H-pyrazolo[4,3-c]pyridine-1-carboxamide], for which the EC50 in test [1] and in test [2] (setting [4]) was less than 1000 nM each time.

With `CNC(=O)[C@@H](NC(=O)n1nc(-c2ccc(F)cc2)c2c1CCNC2)C(C)(C)C` [Compound 53, (S)—N-(3,3-dimethyl-1-(methylamino)-1-oxobutan-2-yl)-3-(4-fluorophenyl)-4,5,6,7-tetrahydro-1H-pyrazolo[4,3-c]pyridine-1-carboxamide], the 50% effective concentration (EC50) in test [1] and in test [2] (setting [4]) was less than 1000 nM throughout.

Regarding `CNC(=O)[C@@H](NC(=O)n1nc(-c2ccc(F)cc2)c2c1CCN(C)C2)C(C)(C)C` [Compound 54, (S)—N-(3,3-dimethyl-1-(methylamino)-1-oxobutan-2-yl)-3-(4-fluorophenyl)-5-methyl-4,5,6,7-tetrahydro-1H-pyrazolo[4,3-c]pyridine-1-carboxamide], the EC50 in test [1] and in test [2] (setting [4]) was less than 1000 nM each time.

`CN1CCc2c(c(-c3ccc(F)c(F)c3)nn2C(=O)N[C@@]23C[C@@H]4C[C@@H](C[C@@](O)(C4)C2)C3)C1` [Compound 55]: the EC50 in test [1] and in test [2] (setting [4]) was less than 1000 nM in each case.

As to `CC(C)(C)c1csc(NC(=O)n2nc(-c3ccc(F)c(F)c3)c3c2CCOC3)n1` [Compound 56, N-(4-tert-butylthiazol-2-yl)-3-(3,4-difluorophenyl)-6,7-dihydropyrano[4,3-c]pyrazole-1(4H)-carboxamide], the EC50 in test [1] and in test [2] (setting [3]) was less than 1000 nM in each case.

Take `CC(C)(C)c1cc(NC(=O)n2nc(-c3ccc(F)c(F)c3)c3c2CCOC3)no1` [Compound 57]: the EC50 in test [1] was greater than 1000 nM; in test [2] (setting [3]) it was less than 1000 nM.

As to `CNC(=O)[C@@H](NC(=O)n1nc(-c2cc(C(F)(F)F)ccc2F)c2c1CCNC2)C(C)(C)C` [Compound 58, (S)—N-(3,3-dimethyl-1-(methylamino)-1-oxobutan-2-yl)-3-(2-fluoro-5-(trifluoromethyl)phenyl)-4,5,6,7-tetrahydro-1H-pyrazolo[4,3-c]pyridine-1-carboxamide], the EC50 is less than 1000 nM in test [1] and greater than 1000 nM in test [2] (setting [3]).

Turning to `CC(C)(C)[C@H](NC(=O)n1nc(-c2ccc(F)c(F)c2)c2c1CCOC2)C(=O)N1CC[C@H](O)C1` [Compound 60, 3-(3,4-difluorophenyl)-N—((S)-1-((S)-3-hydroxypyrrolidin-1-yl)-3,3-dimethyl-1-oxobutan-2-yl)-6,7-dihydropyrano[4,3-c]pyrazole-1(4H)-carboxamide], the EC50 in test [1] and in test [2] (setting [4]) was less than 1000 nM in each case.

For `CNC(=O)[C@@H](NC(=O)n1nc(-c2ccc(F)c(F)c2)c2c1CN(C)CC2)C(C)(C)C` [Compound 61, (S)-3-(3,4-difluorophenyl)-N-(3,3-dimethyl-1-(methylamino)-1-oxobutan-2-yl)-6-methyl-4,5,6,7-tetrahydro-1H-pyrazolo[3,4-c]pyridine-1-carboxamide], the concentration giving a half-maximal response (EC50) in test [1] and in test [2] (setting [4]) was less than 1000 nM in each case.

On to `CNC(=O)[C@@H](NC(=O)n1nc(-c2ccc(F)c(F)c2)c2c1CCCN2C)C(C)(C)C` [Compound 62, (S)-3-(3,4-difluorophenyl)-N-(3,3-dimethyl-1-(methylamino)-1-oxobutan-2-yl)-4-methyl-4,5,6,7-tetrahydro-1H-pyrazolo[4,3-b]pyridine-1-carboxamide], for which the EC50 in test [1] and in test [2] (setting [4]) was less than 1000 nM each time.

Take `CNC(=O)[C@@H](NC(=O)n1nc(-c2ccc(F)c(F)c2)c2c1CCC1(C2)OCCO1)C(C)(C)C` [Compound 63, (S)-3′-(3,4-difluorophenyl)-N-(3,3-dimethyl-1-(methylamino)-1-oxobutan-2-yl)-6′,7′-dihydrospiro[[1,3]dioxolane-2,5′-indazole]-1′(4′H)-carboxamide]: the 50% effective concentration (EC50) in test [1] and in test [2] (setting [4]) was less than 1000 nM each time.

With `CNC(=O)[C@@H](NC(=O)n1nc(-c2cc(F)ccc2F)c2c1CCN(C)C2)C(C)(C)C` [Compound 64, (S)-3-(2,5-difluorophenyl)-N-(3,3-dimethyl-1-(methylamino)-1-oxobutan-2-yl)-5-methyl-4,5,6,7-tetrahydro-1H-pyrazolo[4,3-c]pyridine-1-carboxamide], the EC50 in test [1] was less than 1000 nM; in test [2] (setting [3]), greater than 1000 nM.
